Where two headings read alike, the source gives them in different places.
Tests used:
MM1S cells [1] = assay: Half inhibitory concentration (IC50) on MM1S tumor cell proliferation (CCK-8); format: cell-based; conditions: Homo sapiens, MM1.S, MM1S cell proliferation inhibitory activity, 72 hours of treatment, read-out: IC50(nM)/MM1S cell line
Method: The multiple myeloma cell line used was: MM1S (myeloma (immunoglobulin A lambda), B lymphoblasts), purchased from American Type Culture Collection (ATCC). The medium is RPMI1640 supplemented with 10% FBS and 1% Penicillin-Streptomycin (penicillin and streptomycin). The cells used were identified as correct cells by STR cells, and were negative for mycoplasma through routine inspections.
(§1) The cells used in this present disclosure were cultured in a 37° C. incubator containing 5% CO2. The complete cell culture medium was RPMI 1640 medium with 10% fetal bovine serum, and the final concentrations of penicillin and streptomycin were 100 U/mL, respectively.
MM1S cells were seeded in 100 μL RPMI1640 complete medium at a density of 15000 cells/well. 100 μL of the inoculated cells were treated with 0.5 μL diluted thio-substituted compound of formula (IV) to be tested of the present disclosure at 10 successively decreasing concentrations (starting at the highest concentration of 10 μM/1 μM; 5-fold serial dilutions). After 72 hours of treatment, the cell viability was determined according to the CCK-8 reagent operating instructions. The negative control was DMSO, and the positive control was a commercial inhibitor. After CCK-8 treatment for 2 h, the value of O.D.450 was measured using a microplate reader.

[2] = system: K562 cells (BCR-ABL positive); assay: Half inhibitory concentration (IC50) on tumor cells, CCK-8, K562; conditions: Homo sapiens, K562, 48 h, read-out: IC50 (nM)/K562 cell line
U937 cells = assay: Proliferation inhibition (IC50) on non-BCR-ABL-positive U937 cells; conditions: Homo sapiens, U-937, read-out: IC50 (nM)/U937 cell line
HEK293 cells = assay: Proliferation inhibition (IC50) on non-BCR-ABL-positive HEK293 cells; conditions: Homo sapiens, HEK293, read-out: IC50 (nM)/HEK293 cell line
MV-4-11 cells = assay: Half inhibitory concentration (IC50) on BET-expressing tumor cells, CCK-8, MV-4-11; conditions: Homo sapiens, MV4-11, read-out: IC50 (nM)/MV-4-11 cell line, MV-4-11 cells, 48/72 h, CCK-8
MDA-MB-231 cells = assay: Half inhibitory concentration (IC50) on BET-expressing tumor cells, CCK-8, MDA-MB-231; format: cell-based; conditions: Homo sapiens, 48/72 h, read-out: IC50 (nM)/MDA-MB-231 cell line
Method: (§2) BET-expressing cells MV-4-11 cells (human B granulocytic leukemia cells), MDA-MB-231 cells (human breast cancer cells), MDA-MB-468 cells (human breast cancer cells), MDA-MB-453 Cells (human breast cancer cells), MM1S cells (myeloma (immunoglobulin A lambda), B lymphoblasts) and SR cells (human large cell immunoblast lymphoma) were purchased from the American Type Culture Collection (ATCC).
as §1, with “1640/IMDM/DMEM” for “1640”, “respectively. All cells were tested negative for mycoplasma with mycoplasma detection kit before the experiment.” for “respectively.”
(§3) Determination of the Half Inhibitory Concentration (IC50) of PROTAD Compounds on Tumor Cells
(§4) MV-411 cells, MM1S cells and SR cells were seeded in 100 μL IMDM/RPMI1640/DMEM complete medium at a density of 15000/10000 cells/well; MDA-MB-231 cells, MDA-MB-468 cells, and MDA-MB453 cells were seeded in 100 μL IMDM/RPMI1640/DMEM complete medium at a density of 3000/5000 cells/well, respectively. 100 μL of the inoculated cells were treated with 0.5 μL diluted PROTAD compounds of the present disclosure to be tested at 10 successively decreasing concentrations (starting at the highest concentration of 10 μM; 5-fold serial dilutions). After the cells were treated with the tested drugs 48/72 h, the cell viability was determined according to the CCK-8 reagent manual. The negative control was DMSO, and the positive control was a commercial inhibitor. After CCK-8 treatment for 2 h, the value of O.D.450 was measured using a microplate reader.

MDA-MB-453 cells = assay: Half inhibitory concentration (IC50) on BET-expressing tumor cells, CCK-8, MDA-MB-453; format: cell-based, human; conditions: 48/72 h, read-out: IC50 (nM)/MDA-MB-453 cell line
Method: as §2
as §1, with “1640/IMDM/DMEM” for “1640”, “respectively. All cells were tested negative for mycoplasma with mycoplasma detection kit before the experiment.” for “respectively.”
as §3, §4

MDA-MB-468 cells = assay: Half inhibitory concentration (IC50) on BET-expressing tumor cells, CCK-8, MDA-MB-468; format: cell-based; conditions: Homo sapiens, 48/72 h, read-out: IC50 (nM)/MDA-MB-468 cell line
Method: as §2
as §1, with “1640/IMDM/DMEM” for “1640”, “respectively. All cells were tested negative for mycoplasma with mycoplasma detection kit before the experiment.” for “respectively.”
as §3, §4

MM1S cells [3] = assay: Half inhibitory concentration (IC50) on BET-expressing tumor cells, CCK-8, MM1S; format: cell-based; conditions: Homo sapiens, MM1.S, 48/72 h, read-out: IC50 (nM)/MM1S cell line
In short: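 Cells treated for 48/72 h with ten 5-fold dilutions from 10 μM top, DMSO as negative control. Viability read by CCK-8 (2 h, OD450) and IC50 derived from the concentration series; suspension lines seeded at 15000/10000 cells/well, MDA-MB lines at 3000/5000 cells/well.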

[4] = Homo sapiens, MDA-MB-453, MDA-MB-453 cells

SMILES: NCCCCCCCCSc1cccc2c1CN(C1CCC(=O)NC1=O)C2=O (centres unmarked) [SIAIS171136, 3-(4-((8-aminooctyl)thio)-1-oxoisoindolin-2-yl)piperidine-2,6-dione]
- IC50 (MM1S cells [1]): 4.22 nM

SMILES: NCCCCCCCSc1cccc2c1CN(C1CCC(=O)NC1=O)C2=O (centres unmarked) [SIAIS171135, 3-(4-((7-aminoheptyl)thio)-1-oxoisoindolin-2-yl)piperidine-2,6-dione]
- IC50 (MM1S cells [1]): 4.31 nM

SMILES: O=C1CCC(N2Cc3c(SCCCCCCCBr)cccc3C2=O)C(=O)N1 (centres unmarked) [SIAIS1216135, 3-(4-(7-bromoheptylthio)-1-oxoisoindolin-2-yl)piperidine-2,6-dione]
- IC50 (MM1S cells [1]): 1.23 ± 0.42 nM

SMILES: O=C1CCC(N2Cc3c(SCCCCCCCCCCCBr)cccc3C2=O)C(=O)N1 (centres unmarked) [SIAIS1220015, 3-(4-((11-bromoundecyl)thio)-1-oxoisoindolin-2-yl)piperidine-2,6-dione]
- IC50 (MM1S cells [1]): 3.45 nM

SMILES: O=C1CCC(N2Cc3c(SCCCCCCCCBr)cccc3C2=O)C(=O)N1 (centres unmarked) [SIAIS1216137, 3-(4-((8-bromooctyl)thio)-1-oxoisoindolin-2-yl)piperidine-2,6-dione]
- IC50 (MM1S cells [1]): 1.58 ± 0.71 nM

SMILES: NCCCCCSc1cccc2c1CN(C1CCC(=O)NC1=O)C2=O (centres unmarked) [SIAIS171132, 3-(4-((5-aminopentyl)thio)-1-oxoisoindolin-2-yl)piperidine-2,6-dione]
- IC50 (MM1S cells [1]): 8.27 nM

SMILES: Nc1cccc2c1C(=O)N(C1CCC(=O)NC1=O)C2=O (centres unmarked) [Pomalidomide, reference compound]
- IC50 (MM1S cells [1]): 9.38 nM

SMILES: NCCSc1cccc2c1CN(C1CCC(=O)NC1=O)C2=O (centres unmarked) [SIAIS171123, 3-(4-((2-aminoethyl)thio)-1-oxoisoindolin-2-yl)piperidine-2,6-dione]
- IC50 (MM1S cells [1]): 71.4 nM

SMILES: COc1cc(Nc2c(C#N)cnc3cc(OCCCN4CCN(C)CC4)c(OC)cc23)c(Cl)cc1Cl [Bosutinib, reference compound]
- IC50 [2]: 92.6 nM
- IC50 (U937 cells): > 10000 nM
- IC50 (HEK293 cells): > 10000 nM

SMILES: O=C1CCC(N2Cc3c(SCCCCCCBr)cccc3C2=O)C(=O)N1 (centres unmarked) [SIAIS1216133, 3-(4-(6-bromohexylthio)-1-oxoisoindolin-2-yl)piperidine-2,6-dione]
- IC50 (MM1S cells [1]): 1.27 ± 0.13 nM

SMILES: O=C1CCC(N2Cc3c(SCCCCCCCCCCBr)cccc3C2=O)C(=O)N1 (centres unmarked) [SIAIS1220013, 3-(4-((10-bromodecyl)thio)-1-oxoisoindolin-2-yl)piperidine-2,6-dione]
- IC50 (MM1S cells [1]): 1.98 nM

SMILES: Cc1sc2c(c1C)C(c1ccc(Cl)cc1)=N[C@@H](CC(=O)NCCSc1cccc3c1C(=O)N(C1CCC(=O)NC1=O)C3=O)c1nnc(C)n1-2 (stereo partly drawn) [SIAIS171036, 2-((S)-4-(4-chlorophenyl)-2,3,9-trimethyl-6H-thieno[3,2-f][1,2,4]triazolo[4,3-a][1,4]diazepin-6-yl)-N-(2-((2-(2,6-dioxopiperidin-3-yl)-1,3-dioxoisoindolin-4-yl)thio)ethyl)acetamide]
- IC50 (MV-4-11 cells): 4.5 ± 3.2 nM
- IC50 (MDA-MB-231 cells): 242 ± 65 nM
- IC50 (MDA-MB-453 cells; [4]): 163 nM
- IC50 (MDA-MB-453 cells; MDA-MB-453 cells): 214 nM
- IC50 (MDA-MB-468 cells): 100 ± 21 nM
- IC50 (MM1S cells [3]): 8.6 nM

SMILES: NCCCSc1cccc2c1CN(C1CCC(=O)NC1=O)C2=O (centres unmarked) [SIAIS171124, 3-(4-((3-aminopropyl)thio)-1-oxoisoindolin-2-yl)piperidine-2,6-dione]
- IC50 (MM1S cells [1]): 56.9 nM

SMILES: Cc1sc2c(c1C)C(c1ccc(Cl)cc1)=N[C@@H](CC(=O)NCCCCCCCCSc1cccc3c1C(=O)N(C1CCC(=O)NC1=O)C3=O)c1nnc(C)n1-2 (stereo partly drawn) [SIAIS171049, 2-((S)-4-(4-chlorophenyl)-2,3,9-trimethyl-6H-thieno[3,2-f][1,2,4]triazolo[4,3-a][1,4]diazepin-6-yl)-N-(8-((2-(2,6-dioxopiperidin-3-yl)-1,3-dioxoisoindolin-4-yl)thio)octyl)acetamide]
- IC50 (MV-4-11 cells): 7.2 ± 9.2 nM
- IC50 (MDA-MB-231 cells): 645 ± 249 nM
- IC50 (MDA-MB-453 cells; [4]): 166 nM
- IC50 (MDA-MB-453 cells; MDA-MB-453 cells): 237 nM
- IC50 (MDA-MB-468 cells): 1730 ± 1650 nM
- IC50 (MM1S cells [3]): 3.06 nM

SMILES: NCCCCCCSc1cccc2c1CN(C1CCC(=O)NC1=O)C2=O (centres unmarked) [SIAIS171134, 3-(4-((6-aminohexyl)thio)-1-oxoisoindolin-2-yl)piperidine-2,6-dione]
- IC50 (MM1S cells [1]): 4.77 nM

SMILES: Cc1sc2c(c1C)C(c1ccc(Cl)cc1)=N[C@@H](CC(=O)NCCCSc1cccc3c1CN(C1CCC(=O)NC1=O)C3=O)c1nnc(C)n1-2 (stereo partly drawn) [SIAIS171139, 2-((S)-4-(4-chlorophenyl)-2,3,9-trimethyl-6H-thieno[3,2-f][1,2,4]triazolo[4,3-a][1,4]diazepin-6-yl)-N-(3-((2-(2,6-dioxopiperidin-3-yl)-1-oxoisoindolin-4-yl)thio)propyl)acetamide]
- IC50 (MV-4-11 cells): 1.1 ± 0.6 nM
- IC50 (MDA-MB-231 cells): > 10000 nM
- IC50 (MDA-MB-453 cells; [4]): 452 nM
- IC50 (MDA-MB-468 cells): > 10000 nM
- IC50 (MM1S cells [3]): 2.03 nM

SMILES: Cc1sc2c(c1C)C(c1ccc(Cl)cc1)=N[C@@H](CC(=O)NCCCCCCCCSc1cccc3c1CN(C1CCC(=O)NC1=O)C3=O)c1nnc(C)n1-2 (stereo partly drawn) [SIAIS171145, 2-((S)-4-(4-chlorophenyl)-2,3,9-trimethyl-6H-thieno[3,2-f][1,2,4]triazolo[4,3-a][1,4]diazepin-6-yl)-N-(8-((2-(2,6-dioxopiperidin-3-yl)-1-oxoisoindolin-4-yl)thio)octyl)acetamide]
- IC50 (MV-4-11 cells): 2 ± 1.8 nM
- IC50 (MDA-MB-231 cells): 537 ± 148 nM
- IC50 (MDA-MB-453 cells; [4]): 135 nM
- IC50 (MDA-MB-453 cells; MDA-MB-453 cells): 222 nM
- IC50 (MDA-MB-468 cells): 948 ± 241 nM
- IC50 (MM1S cells [3]): 1.2 nM

SMILES: Cc1sc2c(c1C)C(c1ccc(Cl)cc1)=N[C@@H](CC(=O)NCCCSc1cccc3c1C(=O)N(C1CCC(=O)NC1=O)C3=O)c1nnc(C)n1-2 (stereo partly drawn) [SIAIS171013, 2-((S)-4-(4-chlorophenyl)-2,3,9-trimethyl-6H-thieno[3,2-f][1,2,4]triazolo[4,3-a][1,4]diazepin-6-yl)-N-(3-((2-(2,6-dioxopiperidin-3-yl)-1,3-dioxoisoindolin-4-yl)thio)propyl)acetamide]
- IC50 (MV-4-11 cells): 8.6 ± 8.7 nM
- IC50 (MDA-MB-231 cells): > 2820 nM
- IC50 (MDA-MB-453 cells; [4]): 1090 nM
- IC50 (MDA-MB-468 cells): > 300 nM
- IC50 (MM1S cells [3]): 22.6 nM

SMILES: Cc1sc2c(c1C)C(c1ccc(Cl)cc1)=N[C@@H](CC(=O)NCCCCCCCSc1cccc3c1C(=O)N(C1CCC(=O)NC1=O)C3=O)c1nnc(C)n1-2 (stereo partly drawn) [SIAIS171040, 2-((S)-4-(4-chlorophenyl)-2,3,9-trimethyl-6H-thieno[3,2-f][1,2,4]triazolo[4,3-a][1,4]diazepin-6-yl)-N-(7-((2-(2,6-dioxopiperidin-3-yl)-1,3-dioxoisoindolin-4-yl)thio)heptyl)acetamide]
- IC50 (MV-4-11 cells): 2.2 ± 2 nM
- IC50 (MDA-MB-231 cells): 69 ± 38 nM
- IC50 (MDA-MB-453 cells; [4]): 85 nM
- IC50 (MDA-MB-453 cells; MDA-MB-453 cells): 75.7 nM
- IC50 (MDA-MB-468 cells): 46 ± 12 nM
- IC50 (MM1S cells [3]): 2.78 nM

SMILES: NCCCCSc1cccc2c1CN(C1CCC(=O)NC1=O)C2=O (centres unmarked) [SIAIS171131, 3-(4-((4-aminobutyl)thio)-1-oxoisoindolin-2-yl)piperidine-2,6-dione]
- IC50 (MM1S cells [1]): 6.61 nM

Reference: patent US12226424B2, “Target protein degradation compounds, their anti-tumor use, their intermediates and use of intermediates” (ShanghaiTech University, priority 2018, dated 2025)
